From US20160000912A1, “COMBINATION THERAPY OF A TYPE II ANTI-CD20 ANTIBODY WITH A PROTEASOME INHIBITOR” (Roche Glycart AG, priority 2007, published 2016)

Legend:
[1] = tested on: SU-DHL-4 human Non-Hodgkin-Lymphoma (NHL) cells; assay: Tumor growth inhibition study in vivo, SU-DHL-4 xenografts; parameters: species or system SCID beige mice; details: 1 mg/kg i.p. once weekly
Experimental: Type II anti-CD20 antibody B-HH6-B-KV1 GE(=humanized B-Ly1, glycoengineered B-HH6-B-KV1, see WO 2005/044859 and WO 2007/031875) was provided as stock solution (c=9.4 mg/ml) from GlycArt, Schlieren, Switzerland. Antibody buffer included histidine, trehalose and polysorbate 20. Antibody solution was diluted appropriately in PBS from stock for prior injections.
Proteasome inhibitor bortezomib was purchased as clinical formulation from Janssen-Cilag GmbH, Neuss, Germany. Dilution was adjusted from reconstituted stock solution.
SU-DHL-4 human Non-Hodgkin-Lymphoma (NHL) cells (Chang, H., et al., Leuk Lymphoma. 8 (1992) 129-36) were kindly provided from DSMZ, Braunschweig. Tumor cell line was routinely cultured in RPMI medium (PAA, Laboratories, Austria) supplemented with 10% fetal bovine serum (PAA Laboratories, Austria) and 2 mM L-glutamine, at 37° C. in a water-saturated atmosphere at 5% CO2. Passage 5 was used for transplantation. […]
Animals were controlled daily for clinical symptoms and detection of adverse effects. For monitoring throughout the experiment body weight of animals was documented two times weekly and tumor volume was measured by caliper after staging. […]

[2] = target: T1, CD20 on Raji cells (ATCC-No. CCL-86) (Homo sapiens, UniProt P11836); assay: Ratio of the binding capacities to CD20 on Raji cells compared to rituximab (direct immunofluorescence, Cy5, FACSArray); details: Cy5-conjugated antibodies
T1 construct: generated by direct immunofluorescence using the Burkitt's lymphoma cell line Raji (ATCC-No. CCL-86); host or cells: Raji cells (Burkitt's lymphoma)
T1 sequence (P11836 1-297): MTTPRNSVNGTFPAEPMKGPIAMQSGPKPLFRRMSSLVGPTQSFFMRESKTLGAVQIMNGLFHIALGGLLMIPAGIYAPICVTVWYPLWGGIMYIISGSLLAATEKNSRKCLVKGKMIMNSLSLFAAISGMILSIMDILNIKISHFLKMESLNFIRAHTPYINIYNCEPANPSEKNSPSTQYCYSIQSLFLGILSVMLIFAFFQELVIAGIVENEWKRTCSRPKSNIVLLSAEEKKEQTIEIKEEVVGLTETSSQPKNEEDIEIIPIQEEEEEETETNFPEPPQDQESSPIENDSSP
Experimental: MFI is the mean fluorescent intensity. The “Cy5-labeling ratio” as used herein means the number of Cy5-label molecules per molecule antibody.
Raji cells (ATCC-No. CCL-86) were maintained in culture in RPMI-1640 medium (PanBiotech GmbH, Cat.-No. PO4-18500) containing 10% FCS (Gibco, Cat.-No.10500-064). […] 5*10^5 cells per sample were stained for 30 min at 4° C. Afterwards, cells were washed in culture medium. Propidium iodide (PI) staining was used to exclude dead cells.
Then the ratio of the binding capacities to CD20 on Raji cells (ATCC-No. CCL-86) is calculated according to the following formula: […]

Compound | antitumor activity as single agent (in words) [1] | binding capacity compared to rituximab (in words) [2]
CC(C)C[C@H](NC(=O)[C@H](Cc1ccccc1)NC(=O)c1cnccn1)B(O)O [bortezomib] | only slightly active | 
B-HH6-B-KV1: Type II anti-CD20 antibody (humanized B-Ly1 antibody) of Example 2; FIG. 2 legend calls it B-HH6-B-KV1 GE |  | reduces binding capacity compared to rituximab
